Data on nine compounds can be found in PubChem BioAssay (NCI).

Structures are written as SMILES.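 Cultured in 96-well plates, cells were exposed to test compound for 48 hours across five concentrations. The concentration for 50% growth inhibition is given as GI50. Definition used: TGI = concentration required for complete inhibition of growth.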

Test systems include BT-549 breast; CAKI-1 renal; MALME-3M melanoma; MDA-MB-231 breast; OVCAR-4 ovarian; RPMI-8226 leukemia; SF-295 CNS; SK-MEL-28 melanoma; SK-MEL-5 melanoma; UACC-257 melanoma.
Common to all, as to test: DTP human tumour cell line panel, 48 h

By GI50 is commonly meant the concentration that inhibits growth by half. By TGI is commonly meant the concentration at which net growth stops. Lower therefore signals greater sensitivity of the cells. As for `C[C@@H](NC(=O)Cc1cc(F)cc(F)c1)C(=O)N[C@@]1(C)N=C(c2ccccc2)c2ccccc2N(C)C1=O`, the GI50 in the assay on BT-549 breast was 9.6 µM; with CAKI-1 renal it was 11.7 µM; with MALME-3M melanoma, above 60.8 µM; in the assay on MDA-MB-231 breast it was 15.9 µM; in the assay on OVCAR-4 ovarian, above 100 µM; in the assay with RPMI-8226 leukemia it was 2.11 µM. Moreover, the GI50 in the assay on SF-295 CNS was 42.8 µM; in the assay with SK-MEL-28 melanoma it was above 100 µM; in the assay with SK-MEL-5 melanoma, 35.2 µM; with UACC-257 melanoma, 37.5 µM. For the same compound, the TGI in the assay with BT-549 breast is above 66.4 µM; with CAKI-1 renal, above 56.8 µM; with MALME-3M melanoma, above 100 µM; in the assay with MDA-MB-231 breast, above 96.6 µM; with OVCAR-4 ovarian it was above 100 µM; in the assay on RPMI-8226 leukemia it was 10.5 µM. Moreover, the TGI with SF-295 CNS, with SK-MEL-28 melanoma, in the assay with SK-MEL-5 melanoma and in the assay with UACC-257 melanoma was above 100 µM in each case.
Regarding `CCOC(=O)c1[nH]c2c(c1C)-c1[nH]c(=O)c(S(=O)(=O)c3ccccc3)cc1SC2`, the GI50 was 36.5 µM with BT-549 breast; 54.1 µM with CAKI-1 renal; 36.4 µM in the assay with MALME-3M melanoma; 34.9 µM in the assay with MDA-MB-231 breast; 28.8 µM with OVCAR-4 ovarian; 44 µM in the assay with RPMI-8226 leukemia. Also, the GI50 is 28.1 µM in the assay with SF-295 CNS, 70 µM in the assay with SK-MEL-28 melanoma, 37.4 µM in the assay on SK-MEL-5 melanoma and 67.1 µM in the assay with UACC-257 melanoma. In addition, the TGI with BT-549 breast was above 100 µM; in the assay on CAKI-1 renal, above 100 µM; in the assay on MALME-3M melanoma it was above 100 µM; in the assay with MDA-MB-231 breast, above 100 µM; in the assay on OVCAR-4 ovarian, 86.5 µM; in the assay with RPMI-8226 leukemia, above 100 µM. The TGI with SF-295 CNS, in the assay with SK-MEL-28 melanoma, in the assay with SK-MEL-5 melanoma and with UACC-257 melanoma was above 100 µM in each case.
On to `COc1cc2oc3ccccc3c(=O)c2cc1CSc1ccccc1N`, for which the concentration for total growth inhibition (TGI) was above 100 µM in the assay on BT-549 breast; above 100 µM in the assay with CAKI-1 renal; above 79.5 µM in the assay on MALME-3M melanoma; above 100 µM in the assay on MDA-MB-231 breast; above 100 µM in the assay on OVCAR-4 ovarian; above 87.6 µM in the assay with RPMI-8226 leukemia. Also, the total growth inhibition concentration (TGI) in the assay on SF-295 CNS is above 100 µM; in the assay on SK-MEL-28 melanoma, 98.2 µM; in the assay with SK-MEL-5 melanoma, above 74 µM; in the assay on UACC-257 melanoma, above 100 µM.
As for `CC(CC(=O)O)(CC(=O)O)C(=O)O`, the TGI with BT-549 breast, with CAKI-1 renal, with MALME-3M melanoma, in the assay with MDA-MB-231 breast, in the assay on OVCAR-4 ovarian and with RPMI-8226 leukemia was above 100 µM throughout. The concentration for total growth inhibition (TGI) with SF-295 CNS, in the assay on SK-MEL-28 melanoma, in the assay on SK-MEL-5 melanoma and in the assay on UACC-257 melanoma was above 100 µM throughout.
As to `CCCC/C(=N\N=C(N)N)c1ccc(F)cc1`, the GI50 in the assay with BT-549 breast was 3.48 µM; in the assay with CAKI-1 renal, 3.44 µM; in the assay on MALME-3M melanoma, 4.13 µM; with MDA-MB-231 breast it was 5.42 µM; in the assay with OVCAR-4 ovarian, 5.27 µM; in the assay with RPMI-8226 leukemia, 2.67 µM. The GI50 was 2.84 µM in the assay on SF-295 CNS, 4.21 µM in the assay with SK-MEL-28 melanoma, 1.48 µM in the assay on SK-MEL-5 melanoma and 4.4 µM in the assay with UACC-257 melanoma. Also, the TGI with BT-549 breast worked out at 12.5 µM; in the assay with CAKI-1 renal, 15.1 µM; in the assay with MALME-3M melanoma, 18.5 µM; in the assay on MDA-MB-231 breast, 18.9 µM; in the assay with OVCAR-4 ovarian, 20 µM; in the assay on RPMI-8226 leukemia, 17.4 µM. The TGI turned out to be 12.3 µM with SF-295 CNS, 17.6 µM with SK-MEL-28 melanoma, 4.27 µM in the assay on SK-MEL-5 melanoma and 13.9 µM in the assay with UACC-257 melanoma.
For `COc1ccc(S(=O)(=O)N/N=C/C(=O)O)cc1`, the total growth inhibition concentration (TGI) in the assay with BT-549 breast was 704 µM; with CAKI-1 renal it was 1230 µM; in the assay on MALME-3M melanoma, above 1250 µM; with MDA-MB-231 breast it was above 1250 µM; with OVCAR-4 ovarian, above 1210 µM; with RPMI-8226 leukemia, 887 µM. Besides, the TGI with SF-295 CNS was 1070 µM; with SK-MEL-28 melanoma, above 1250 µM; with SK-MEL-5 melanoma, 894 µM; in the assay with UACC-257 melanoma it was above 1250 µM.
For `Cc1ccc(NCSc2ccc(Cl)cc2)cc1`, the GI50 was 6.43 µM in the assay on BT-549 breast; 5.51 µM in the assay with CAKI-1 renal; above 100 µM with MALME-3M melanoma; 15.1 µM in the assay with MDA-MB-231 breast; 5.06 µM with OVCAR-4 ovarian; 2.29 µM with RPMI-8226 leukemia. The GI50 with SF-295 CNS was 24.9 µM; in the assay on SK-MEL-28 melanoma, above 100 µM; in the assay on SK-MEL-5 melanoma, above 100 µM; with UACC-257 melanoma, above 100 µM. Moreover, the TGI in the assay on BT-549 breast, with CAKI-1 renal, in the assay with MALME-3M melanoma, in the assay with MDA-MB-231 breast, in the assay with OVCAR-4 ovarian and in the assay on RPMI-8226 leukemia was above 100 µM in each case. Besides, the TGI with SF-295 CNS, with SK-MEL-28 melanoma, with SK-MEL-5 melanoma and in the assay on UACC-257 melanoma was above 100 µM throughout.
Turning to `Cc1ccc(C2=Nc3c(N)ncnc3NC(c3cccc(Nc4ccnc5cc(C(F)(F)F)ccc45)c3)C2)cc1` (stereo not given), the GI50 is 2.83 µM in the assay with BT-549 breast; 3.15 µM with CAKI-1 renal; 3 µM in the assay on MALME-3M melanoma; 2.59 µM with MDA-MB-231 breast; 4.33 µM in the assay on OVCAR-4 ovarian; 2.17 µM with RPMI-8226 leukemia. Moreover, the GI50 was 2.33 µM in the assay with SF-295 CNS, 3.81 µM in the assay on SK-MEL-28 melanoma, 2.05 µM with SK-MEL-5 melanoma and 10.2 µM in the assay on UACC-257 melanoma. Moreover, the TGI was 13.4 µM in the assay with BT-549 breast; 15.2 µM in the assay with CAKI-1 renal; 23.1 µM with MALME-3M melanoma; 8.44 µM in the assay on MDA-MB-231 breast; above 100 µM with OVCAR-4 ovarian; 6.05 µM in the assay on RPMI-8226 leukemia. The TGI with SF-295 CNS stood at 6.88 µM; with SK-MEL-28 melanoma, 31.4 µM; in the assay with SK-MEL-5 melanoma, 4.24 µM; in the assay on UACC-257 melanoma, 84.9 µM.
As to `O=c1oc(-c2ccc(O)c(O)c2)cc2cc(O)cc(O)c12`, the GI50 with BT-549 breast was 26.2 µM; in the assay on CAKI-1 renal it was 33.6 µM; in the assay on MALME-3M melanoma it was 57.5 µM; in the assay with MDA-MB-231 breast, 44.7 µM; in the assay on OVCAR-4 ovarian, 76.6 µM; with RPMI-8226 leukemia it was 20.8 µM. In addition, the GI50 in the assay on SF-295 CNS was 43.7 µM; in the assay on SK-MEL-28 melanoma it was 39.5 µM; in the assay with SK-MEL-5 melanoma, 18 µM; in the assay with UACC-257 melanoma, 38 µM. The TGI with BT-549 breast was 84.8 µM; in the assay with CAKI-1 renal, above 100 µM; with MALME-3M melanoma it was above 100 µM; in the assay with MDA-MB-231 breast, above 100 µM; in the assay on OVCAR-4 ovarian, above 100 µM; in the assay on RPMI-8226 leukemia it was above 100 µM. For the same compound, the concentration for total growth inhibition (TGI) with SF-295 CNS was above 100 µM; in the assay on SK-MEL-28 melanoma, above 100 µM; with SK-MEL-5 melanoma it was 42.2 µM; in the assay on UACC-257 melanoma, above 100 µM.
